From ChEMBL document CHEMBL1201862, “PubChem BioAssay data set” (2004)
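Where inhibition never reached the appropriate level, the endpoint shown equals the highest concentration tested. Otherwise, values were interpolated linearly from a five-concentration, 48-hour dose response in 96-well plates. At the GI50, growth is halved.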 The source made the active and inactive calls. Rule as the data show it: active = GI50 up to about 1.1 µM and inactive = higher.

Columns and labels:
Test in all cases: NCI-60 cell line screen, 48 h
M14 = test system: M14
DMS-114 = test system: DMS-114
ACHN = test system: ACHN
MOLT-4 = test system: MOLT-4
COLO 205 = test system: COLO 205
HOP-62 = test system: HOP-62
SNB-75 = test system: SNB-75
NCI-H460 = test system: NCI-H460
DLD-1 = test system: DLD-1
M19-MEL = test system: M19-MEL
UACC-257 = test system: UACC-257
HCT-116 = test system: HCT-116
NCI-H226 = test system: NCI-H226
HCT-15 = test system: HCT-15
SF-539 = test system: SF-539
CAKI-1 = test system: CAKI-1
A498 = test system: A498
EKVX = test system: EKVX
HOP-92 = test system: HOP-92

Q: Which results are given for CCOC(=O)[C@H]1Nc2c(cccc2[N+](=O)[O-])C2c3ccccc3CC21 (stereo not given in full)?
A: GI50 (M14): > 100 µM (inactive); GI50 (DMS-114): > 100 µM (inactive); GI50 (ACHN): 28.4 µM (inactive); GI50 (MOLT-4): > 100 µM (inactive); GI50 (COLO 205): > 100 µM (inactive); GI50 (HOP-62): > 100 µM (inactive); GI50 (SNB-75): > 100 µM (inactive); GI50 (NCI-H460): > 100 µM (inactive); GI50 (DLD-1): > 100 µM (inactive); GI50 (M19-MEL): > 100 µM (inactive); GI50 (UACC-257): 27.7 µM (inactive); GI50 (HCT-116): > 100 µM (inactive); GI50 (NCI-H226): > 100 µM (inactive); GI50 (HCT-15): > 100 µM; GI50 (SF-539): > 100 µM (inactive); GI50 (CAKI-1): > 100 µM (inactive)

Q: COc1ccc(/C=N/NC(=O)NCCCN(C)C)cc1 was tested. Which GI50 (DMS-114) did it give?
A: > 100 µM (inactive)

Q: And the GI50 (ACHN)?
A: > 100 µM (inactive)

Q: And the GI50 (MOLT-4)?
A: > 100 µM (inactive)

Q: And the GI50 (NCI-H460)?
A: > 100 µM (inactive)

Q: What about the GI50 (DLD-1) of the same compound?
A: > 100 µM (inactive)

Q: What about the GI50 (A498) of the same compound?
A: > 100 µM (inactive)

Q: What about the GI50 (UACC-257) of the same compound?
A: > 100 µM (inactive)

Q: And the GI50 (HCT-116)?
A: > 100 µM (inactive)

Q: And the GI50 (NCI-H226)?
A: > 100 µM (inactive)

Q: And the GI50 (HCT-15)?
A: > 100 µM

Q: And the GI50 (SF-539)?
A: > 100 µM (inactive)

Q: Which GI50 (M14) does the source give for COC1=CC(=O)c2ccccc2C1(C)C1=NC(C)(C)CO1 (stereo not given) here?
A: > 100 µM (inactive)

Q: What about the GI50 (DMS-114) of the same compound?
A: > 100 µM (inactive)

Q: And the GI50 (ACHN)?
A: > 100 µM (inactive)

Q: What about the GI50 (MOLT-4) of the same compound?
A: > 100 µM (inactive)

Q: And the GI50 (EKVX)?
A: > 100 µM (inactive)

Q: What about the GI50 (COLO 205) of the same compound?
A: > 100 µM (inactive)

Q: And the GI50 (HOP-62)?
A: > 100 µM (inactive)

Q: And the GI50 (SNB-75)?
A: > 100 µM (inactive)

Q: And the GI50 (NCI-H460)?
A: > 100 µM (inactive)

Q: What about the GI50 (DLD-1) of the same compound?
A: > 100 µM (inactive)

Q: And the GI50 (HOP-92)?
A: > 100 µM (inactive)

Q: And the GI50 (M19-MEL)?
A: > 100 µM (inactive)

Q: And the GI50 (UACC-257)?
A: > 100 µM (inactive)

Q: What about the GI50 (HCT-116) of the same compound?
A: > 100 µM (inactive)

Q: And the GI50 (NCI-H226)?
A: > 100 µM (inactive)

Q: What about the GI50 (HCT-15) of the same compound?
A: > 100 µM

Q: What about the GI50 (SF-539) of the same compound?
A: > 100 µM (inactive)

Q: What about the GI50 (CAKI-1) of the same compound?
A: > 100 µM (inactive)

Q: With Nc1ccc2[nH]c3c(-c4ccccc4)nccc3c2c1 as the compound, how does the GI50 (DMS-114) read?
A: 37.6 µM (inactive)

Q: And the GI50 (MOLT-4)?
A: 4.46 µM (inactive)

Q: What about the GI50 (EKVX) of the same compound?
A: > 100 µM (inactive)

Q: What about the GI50 (COLO 205) of the same compound?
A: 44 µM (inactive)

Q: What about the GI50 (HOP-62) of the same compound?
A: > 84.5 µM (inactive)

Q: What about the GI50 (SNB-75) of the same compound?
A: 29.6 µM (inactive)

Q: And the GI50 (NCI-H460)?
A: 11.3 µM (inactive)

Q: And the GI50 (DLD-1)?
A: 64.7 µM (inactive)

Q: What about the GI50 (HOP-92) of the same compound?
A: 39.1 µM (inactive)

Q: What about the GI50 (A498) of the same compound?
A: 36.5 µM (inactive)

Q: And the GI50 (M19-MEL)?
A: 64.6 µM (inactive)

Q: What about the GI50 (UACC-257) of the same compound?
A: > 75.3 µM (inactive)

Q: And the GI50 (HCT-116)?
A: 34.6 µM (inactive)

Q: What about the GI50 (NCI-H226) of the same compound?
A: 27.8 µM (inactive)

Q: And the GI50 (HCT-15)?
A: 41.3 µM

Q: What about the GI50 (SF-539) of the same compound?
A: 71.6 µM (inactive)

Q: Which GI50 (M14) does the source give for [N-]=[N+]=CC(=O)c1ccccc1C#CCCc1ccccc1 here?
A: 38.8 µM (inactive)

Q: What about the GI50 (DMS-114) of the same compound?
A: 5.83 µM (inactive)

Q: And the GI50 (ACHN)?
A: 22.6 µM (inactive)

Q: What about the GI50 (MOLT-4) of the same compound?
A: 12.1 µM (inactive)

Q: And the GI50 (EKVX)?
A: 24.5 µM (inactive)

Q: What about the GI50 (COLO 205) of the same compound?
A: 32 µM (inactive)

Q: What about the GI50 (HOP-62) of the same compound?
A: 31.6 µM (inactive)

Q: What about the GI50 (SNB-75) of the same compound?
A: 15.6 µM (inactive)

Q: What about the GI50 (NCI-H460) of the same compound?
A: 23.2 µM (inactive)

Q: And the GI50 (DLD-1)?
A: 39.4 µM (inactive)

Q: And the GI50 (HOP-92)?
A: 18.9 µM (inactive)

Q: And the GI50 (A498)?
A: 28.4 µM (inactive)

Q: What about the GI50 (UACC-257) of the same compound?
A: 23.9 µM (inactive)

Q: What about the GI50 (HCT-116) of the same compound?
A: 16.6 µM (inactive)

Q: What about the GI50 (NCI-H226) of the same compound?
A: 29.4 µM (inactive)

Q: And the GI50 (HCT-15)?
A: 26.1 µM

Q: What about the GI50 (SF-539) of the same compound?
A: 36.6 µM (inactive)

Q: How did the GI50 (M14) turn out when CC1(C)CCc2cc3c(cc2O1)OC(C)(C)CC3=O was run?
A: > 100 µM (inactive)

Q: And the GI50 (DMS-114)?
A: 40.9 µM (inactive)

Q: What about the GI50 (ACHN) of the same compound?
A: 88.9 µM (inactive)

Q: And the GI50 (MOLT-4)?
A: 46.8 µM (inactive)

Q: And the GI50 (EKVX)?
A: 93.5 µM (inactive)

Q: And the GI50 (COLO 205)?
A: > 100 µM (inactive)

Q: And the GI50 (HOP-62)?
A: 23.2 µM (inactive)

Q: What about the GI50 (SNB-75) of the same compound?
A: 70.8 µM (inactive)

Q: What about the GI50 (NCI-H460) of the same compound?
A: > 100 µM (inactive)

Q: What about the GI50 (DLD-1) of the same compound?
A: 97.5 µM (inactive)

Q: What about the GI50 (HOP-92) of the same compound?
A: 17.5 µM (inactive)

Q: And the GI50 (M19-MEL)?
A: 88.7 µM (inactive)

Q: And the GI50 (HCT-116)?
A: 71.1 µM (inactive)

Q: What about the GI50 (NCI-H226) of the same compound?
A: 34.2 µM (inactive)

Q: What about the GI50 (HCT-15) of the same compound?
A: 91.8 µM

Q: What about the GI50 (SF-539) of the same compound?
A: > 100 µM (inactive)

Q: What about the GI50 (CAKI-1) of the same compound?
A: 52.5 µM (inactive)

Q: Which GI50 (M14) does the source give for CCCCCC1CC(C(C)=O)CN1c1ccc(F)cc1 (stereo not given) here?
A: 35 µM (inactive)

Q: And the GI50 (DMS-114)?
A: 20.3 µM (inactive)

Q: What about the GI50 (ACHN) of the same compound?
A: 26.9 µM (inactive)

Q: What about the GI50 (EKVX) of the same compound?
A: 50.6 µM (inactive)

Q: What about the GI50 (COLO 205) of the same compound?
A: 48.1 µM (inactive)

Q: And the GI50 (SNB-75)?
A: 25.5 µM (inactive)

Q: What about the GI50 (NCI-H460) of the same compound?
A: 44.4 µM (inactive)

Q: What about the GI50 (DLD-1) of the same compound?
A: 32 µM (inactive)

Q: What about the GI50 (HOP-92) of the same compound?
A: 27.9 µM (inactive)

Q: What about the GI50 (A498) of the same compound?
A: 77.6 µM (inactive)

Q: What about the GI50 (M19-MEL) of the same compound?
A: 39.7 µM (inactive)

Q: And the GI50 (UACC-257)?
A: 30.5 µM (inactive)

Q: What about the GI50 (HCT-116) of the same compound?
A: 27.1 µM (inactive)

Q: What about the GI50 (HCT-15) of the same compound?
A: 52.8 µM

Q: What about the GI50 (SF-539) of the same compound?
A: > 100 µM (inactive)
